Measurements as given in US12391648B2, “Pyridyloxy thioester derivative and preparation method therefor, herbicidal composition, and application” (Qingdao Kingagroot Chemical Compound Co., Ltd., priority 2018, dated 2025).

Legend:
Assay in all cases: Post-emergence test experiment (Table 3, 1000 g/ha)
Assay type in all cases: in vivo
Conditions in all cases: post-emergence spray, after 3 weeks, fresh weight inhibition
[1] = test system: Abutilon theophrasti
Procedure, shortened: (§1)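 Activity graded levels 0-5 by fresh-weight inhibition (level 5 above 85%, level 0 below 5%), assessed 3 weeks after treatment. Plants grown in greenhouse pots were sprayed post-emergence at 2-3 leaves using acetone/tween-80 solutions with methyl oleate synergist (1.5 L/ha).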

[2] = test system: Digitaria sanguinalis
Procedure, shortened: as §1

[3] = test system: Galium spurium
Procedure, shortened: as §1

[4] = test system: Leptochloa chinensis
Procedure, shortened: as §1

[5] = test system: Monochoria vaginalis
Procedure, shortened: as §1

[6] = test system: Setaria viridis
Procedure, shortened: as §1

CCCC(C)SC(=O)C(C)Oc1nc(F)c(Cl)c(N)c1Cl (stereo not drawn) [Compound 144]
Activity level (growth inhibition rate) Abutilon theophrasti [1]: 5 (Level 5: the growth inhibition rate is greater than 85%)
Activity level (growth inhibition rate) Digitaria sanguinalis [2]: 5 (Level 5: the growth inhibition rate is greater than 85%)
Activity level (growth inhibition rate) Galium spurium [3]: 5 (Level 5: the growth inhibition rate is greater than 85%)
Activity level (growth inhibition rate) Leptochloa chinensis [4]: 5 (Level 5: the growth inhibition rate is greater than 85%)
Activity level (growth inhibition rate) Monochoria Vaginalis [5]: 5 (Level 5: the growth inhibition rate is greater than 85%)
Activity level (growth inhibition rate) Setaria viridis [6]: 5 (Level 5: the growth inhibition rate is greater than 85%)

CCC(C)CSC(=O)C(C)Oc1nc(F)c(Cl)c(N)c1Cl (stereo not drawn) [Compound 145]
Activity level (growth inhibition rate) Abutilon theophrasti [1]: 5 (Level 5: the growth inhibition rate is greater than 85%)
Activity level (growth inhibition rate) Digitaria sanguinalis [2]: 5 (Level 5: the growth inhibition rate is greater than 85%)
Activity level (growth inhibition rate) Galium spurium [3]: 5 (Level 5: the growth inhibition rate is greater than 85%)
Activity level (growth inhibition rate) Leptochloa chinensis [4]: 5 (Level 5: the growth inhibition rate is greater than 85%)
Activity level (growth inhibition rate) Monochoria Vaginalis [5]: 5 (Level 5: the growth inhibition rate is greater than 85%)
Activity level (growth inhibition rate) Setaria viridis [6]: 5 (Level 5: the growth inhibition rate is greater than 85%)

CC(C)CCSC(=O)C(C)Oc1nc(F)c(Cl)c(N)c1Cl (stereo not drawn) [Compound 146]
Activity level (growth inhibition rate) Abutilon theophrasti [1]: 5 (Level 5: the growth inhibition rate is greater than 85%)
Activity level (growth inhibition rate) Digitaria sanguinalis [2]: 5 (Level 5: the growth inhibition rate is greater than 85%)
Activity level (growth inhibition rate) Galium spurium [3]: 5 (Level 5: the growth inhibition rate is greater than 85%)
Activity level (growth inhibition rate) Leptochloa chinensis [4]: 5 (Level 5: the growth inhibition rate is greater than 85%)
Activity level (growth inhibition rate) Monochoria Vaginalis [5]: 5 (Level 5: the growth inhibition rate is greater than 85%)
Activity level (growth inhibition rate) Setaria viridis [6]: 5 (Level 5: the growth inhibition rate is greater than 85%)

CC(Oc1nc(F)c(Cl)c(N)c1Cl)C(=O)SC(C)C(C)C (stereo not drawn) [Compound 147]
Activity level (growth inhibition rate) Abutilon theophrasti [1]: 5 (Level 5: the growth inhibition rate is greater than 85%)
Activity level (growth inhibition rate) Digitaria sanguinalis [2]: 5 (Level 5: the growth inhibition rate is greater than 85%)
Activity level (growth inhibition rate) Galium spurium [3]: 5 (Level 5: the growth inhibition rate is greater than 85%)
Activity level (growth inhibition rate) Leptochloa chinensis [4]: 5 (Level 5: the growth inhibition rate is greater than 85%)
Activity level (growth inhibition rate) Monochoria Vaginalis [5]: 5 (Level 5: the growth inhibition rate is greater than 85%)
Activity level (growth inhibition rate) Setaria viridis [6]: 5 (Level 5: the growth inhibition rate is greater than 85%)

CC(Oc1nc(F)c(Cl)c(N)c1Cl)C(=O)SCC(C)(C)C (stereo not drawn) [Compound 148]
Activity level (growth inhibition rate) Abutilon theophrasti [1]: 5 (Level 5: the growth inhibition rate is greater than 85%)
Activity level (growth inhibition rate) Digitaria sanguinalis [2]: 5 (Level 5: the growth inhibition rate is greater than 85%)
Activity level (growth inhibition rate) Galium spurium [3]: 5 (Level 5: the growth inhibition rate is greater than 85%)
Activity level (growth inhibition rate) Leptochloa chinensis [4]: 5 (Level 5: the growth inhibition rate is greater than 85%)
Activity level (growth inhibition rate) Monochoria Vaginalis [5]: 5 (Level 5: the growth inhibition rate is greater than 85%)
Activity level (growth inhibition rate) Setaria viridis [6]: 5 (Level 5: the growth inhibition rate is greater than 85%)

CCC(C)(C)SC(=O)C(C)Oc1nc(F)c(Cl)c(N)c1Cl (stereo not drawn) [Compound 149]
Activity level (growth inhibition rate) Abutilon theophrasti [1]: 5 (Level 5: the growth inhibition rate is greater than 85%)
Activity level (growth inhibition rate) Digitaria sanguinalis [2]: 5 (Level 5: the growth inhibition rate is greater than 85%)
Activity level (growth inhibition rate) Galium spurium [3]: 5 (Level 5: the growth inhibition rate is greater than 85%)
Activity level (growth inhibition rate) Leptochloa chinensis [4]: 5 (Level 5: the growth inhibition rate is greater than 85%)
Activity level (growth inhibition rate) Monochoria Vaginalis [5]: 5 (Level 5: the growth inhibition rate is greater than 85%)
Activity level (growth inhibition rate) Setaria viridis [6]: 5 (Level 5: the growth inhibition rate is greater than 85%)
